Key:
[1] = tested on: SARS-CoV-2; assay: Antiviral activity against SARS-CoV-2 MT020880 infected in African green monkey Vero cells assessed as inhibition of viral entry preincubated for 1 hr at 10 uM; format: functional
[2] = tested on: Vero; assay: Cytotoxicity against African green monkey Vero cells at 50 uM; format: toxicity, cell-based; details: chlorocebus sabaeus
[3] = tested on: SARS-CoV-2; assay: Antiviral activity against SARS-CoV-2 MT020880 infected in African green monkey Vero cells assessed as inhibition of viral entry preincubated for 1 hr; format: functional, organism-based, Severe acute respiratory syndrome coronavirus 2
[4] = tested on: SARS-CoV-2; assay: Antiviral activity against SARS-CoV-2 MT020880 infected in African green monkey Vero cells measured after 48 hrs by spread assay; format: functional, organism-based, Severe acute respiratory syndrome coronavirus 2
[5] = Severe acute respiratory syndrome coronavirus 2, MT020880, Vero

Compound	inhibition ([1]; Severe acute respiratory syndrome coronavirus 2) [%]	Activity [2]	IC50 ([3]; vero) [µM]	IC50 ([4]; vero) [µM]	IC50 [3, 5] [µM]	inhibition at 10 µM [1, 5] [%]	IC50 ([4]; Severe acute respiratory syndrome coronavirus 2, MT020880, Vero, 48 h) [µM]
IVERMECTIN [listing 1 of 2 here]	90	–	–	–	–	–	–
IVERMECTIN [listing 2 of 2 here]	–	Toxic	4.97	5.53	–	–	–
CC(C)(C)c1ccc(CN2CCN(C[C@H](O)[C@@H](N)Cc3ccccc3)CC2)cc1	–	Non-Toxic	–	–	7.28	90	8.46

Source: ChEMBL document CHEMBL5126496, “A novel compound active against SARS-CoV-2 targeting uridylate-specific endoribonuclease (NendoU/NSP15): in silico and in vitro investigations” (RSC Med Chem, 2021)
